Data on eight compounds can be found in paper PMC9375364, “Fabrication of multifunctional metal–organic frameworks nanoparticles via layer-by-layer self-assembly to efficiently discover PSD95-nNOS uncouplers for stroke treatment” (Journal of Nanobiotechnology, 2022).

The target of this assay is T1, PSD95-nNOS (GFP-PSD95 coupled to His-nNOS on magnetic Fe-MOF) (Rattus norvegicus (nNOS); Homo sapiens (PSD95), UniProt P29476+P78352).
T1 construct: gene Nos1; two-species complex; myc-His-nNOS (pcDNA3.1) and GFP-PSD95-Flag (pcDNA3.1), total synthesized genes, expressed in HEK293T, from RIPA lysates; His-nNOS immobilized on magnetic Fe-MOF, then GFP-PSD95 coupled
T1 sequence (P29476 whole entry): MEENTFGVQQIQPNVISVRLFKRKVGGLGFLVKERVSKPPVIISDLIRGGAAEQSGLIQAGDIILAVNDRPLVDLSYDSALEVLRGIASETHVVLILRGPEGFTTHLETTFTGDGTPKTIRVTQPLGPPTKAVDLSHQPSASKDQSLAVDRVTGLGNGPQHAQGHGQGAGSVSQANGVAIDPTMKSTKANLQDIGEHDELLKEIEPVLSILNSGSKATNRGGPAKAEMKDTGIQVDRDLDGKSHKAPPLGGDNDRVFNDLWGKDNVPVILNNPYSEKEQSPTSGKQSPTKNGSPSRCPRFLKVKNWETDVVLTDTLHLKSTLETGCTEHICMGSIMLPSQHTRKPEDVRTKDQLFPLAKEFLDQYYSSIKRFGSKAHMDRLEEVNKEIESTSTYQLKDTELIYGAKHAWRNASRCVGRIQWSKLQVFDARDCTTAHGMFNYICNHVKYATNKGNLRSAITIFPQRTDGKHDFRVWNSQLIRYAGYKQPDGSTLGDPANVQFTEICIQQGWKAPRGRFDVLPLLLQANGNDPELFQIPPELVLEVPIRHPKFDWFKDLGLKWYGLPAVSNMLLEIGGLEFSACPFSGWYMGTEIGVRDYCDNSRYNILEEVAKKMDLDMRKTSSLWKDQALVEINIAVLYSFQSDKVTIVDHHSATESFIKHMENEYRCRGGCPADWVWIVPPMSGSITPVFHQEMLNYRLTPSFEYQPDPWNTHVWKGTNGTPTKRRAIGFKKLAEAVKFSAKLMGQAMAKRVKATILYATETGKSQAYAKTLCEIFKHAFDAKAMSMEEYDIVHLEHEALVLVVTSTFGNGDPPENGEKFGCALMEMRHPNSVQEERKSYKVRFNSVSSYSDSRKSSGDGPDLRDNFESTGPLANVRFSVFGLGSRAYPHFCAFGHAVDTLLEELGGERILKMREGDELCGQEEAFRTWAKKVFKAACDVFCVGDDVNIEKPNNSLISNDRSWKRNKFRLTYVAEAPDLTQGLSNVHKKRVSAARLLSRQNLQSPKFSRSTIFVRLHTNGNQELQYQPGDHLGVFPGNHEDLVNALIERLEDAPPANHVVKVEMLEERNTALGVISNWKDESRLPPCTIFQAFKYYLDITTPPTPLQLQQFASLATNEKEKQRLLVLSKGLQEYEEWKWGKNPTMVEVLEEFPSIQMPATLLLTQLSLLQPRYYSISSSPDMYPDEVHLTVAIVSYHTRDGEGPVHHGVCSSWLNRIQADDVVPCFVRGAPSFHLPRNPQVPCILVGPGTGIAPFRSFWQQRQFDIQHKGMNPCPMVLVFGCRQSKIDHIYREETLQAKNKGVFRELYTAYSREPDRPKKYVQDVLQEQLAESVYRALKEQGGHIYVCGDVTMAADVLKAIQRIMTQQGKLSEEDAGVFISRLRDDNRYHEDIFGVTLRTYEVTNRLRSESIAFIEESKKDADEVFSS
T1 sequence (P78352 whole entry): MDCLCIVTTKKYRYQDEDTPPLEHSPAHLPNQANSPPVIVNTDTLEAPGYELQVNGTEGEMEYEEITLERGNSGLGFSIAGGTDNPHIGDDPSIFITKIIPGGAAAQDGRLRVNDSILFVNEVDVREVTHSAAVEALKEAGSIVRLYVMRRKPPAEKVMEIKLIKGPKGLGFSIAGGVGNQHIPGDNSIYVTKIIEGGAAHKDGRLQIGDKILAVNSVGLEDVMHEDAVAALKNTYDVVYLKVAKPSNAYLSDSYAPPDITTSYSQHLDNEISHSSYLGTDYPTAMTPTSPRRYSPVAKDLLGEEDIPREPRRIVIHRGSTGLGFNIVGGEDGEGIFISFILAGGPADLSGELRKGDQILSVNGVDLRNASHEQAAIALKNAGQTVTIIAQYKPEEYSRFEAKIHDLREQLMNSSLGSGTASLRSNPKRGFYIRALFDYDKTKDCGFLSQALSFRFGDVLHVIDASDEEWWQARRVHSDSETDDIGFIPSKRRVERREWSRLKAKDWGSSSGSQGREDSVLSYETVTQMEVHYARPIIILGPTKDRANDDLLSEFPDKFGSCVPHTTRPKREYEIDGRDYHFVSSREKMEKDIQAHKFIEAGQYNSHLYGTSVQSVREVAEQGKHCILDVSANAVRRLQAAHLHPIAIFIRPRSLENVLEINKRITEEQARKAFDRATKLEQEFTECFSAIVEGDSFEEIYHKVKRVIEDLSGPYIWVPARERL
The experiment in a line: uncoupling of GFP-PSD95 from His-nNOS/Fe-MOF, magnetic separation, fluorescence. In kind it is binding. The text has this:
uncoupling of GFP-PSD95 from His-nNOS/Fe-MOF, magnetic separation, fluorescence on PSD95-nNOS (GFP-PSD95 coupled to His-nNOS on magnetic Fe-MOF)

SMILES strings stand for the structures. Where two headings read alike, the source gives them in different places.

Broadly, the IC50 is the concentration at which inhibition is half-maximal.

`COc1ccc2c(c[n+](C)c3c4cc5c(cc4ccc23)OCO5)c1OC` [compound 8, Chelerythrine]: the IC50 is > 1800 µM.
`COc1cc(O)c2c(c1)C(=O)c1cc(C)cc(O)c1C2=O` [compound 9, Physcion]: the 50% inhibitory concentration (IC50) was > 1800 µM.
Take `O=C(O)c1ccc(NCc2cc(Cl)cc(Cl)c2O)cc1O` [ZL006, 4-(3,5-Dichloro-2-hydroxy-benzylamino)-2-hydroxybenzoic acid, reference compound]: the IC50 was found to be 1800 ± 151 µM.
On the same count and under the same terms, to `O=c1cc(-c2ccccc2)oc2cc(O)c(O)c(O)c12` [compound 2, Baicalein] belongs 144 ± 22 µM; to `O=C(O)[C@H]1O[C@@H](Oc2cc3oc(-c4ccccc4)cc(=O)c3c(O)c2O)[C@H](O)[C@@H](O)[C@@H]1O` [compound 1, Baicalin], 104 ± 1 µM; to `COc1cc2c[n+](C)c3c4cc5c(cc4ccc3c2cc1OC)OCO5` [compound 7, Nitidine chloride], > 1800 µM.
`COc1cc(/C=C/c2cc(O)cc(O)c2)ccc1O` [compound 6, Isorhapontigenin]: the IC50 was > 1800 µM.
Under “PBS pH 7.4, 0.1% DMSO, 4 °C, 5 h, immobilized nNOS, inhibition of PSD95-nNOS coupling, binding chain not told”, `Oc1cc(O)cc(/C=C/c2c(O)cccc2O)c1` [compound 3, Gnetol] showed an IC50 of 492 ± 63 µM.
